Legend:
ATF4 = ATF4 expression inhibition assay (ATF4 5′UTR luciferase reporter, thapsigargin-stressed); assay type: cell-based; conditions: Homo sapiens, HEK-293T; HEK293T cells carrying ATF4 luciferase reporter, 100 nM thapsigargin (Tg), 3 hours at 37° C.; read-out: ATF4 inhibition
Description: The ATF4 reporter was prepared by fusing the human full length 5′UTR of ATF4 (NCBI Accession No. BC022088.2) upstream of the firefly luciferase coding sequence lacking the initiator methionine. The fused sequence was cloned into pLenti-EF1a-C-Myc-DDK-IRES-Puro cloning vector (Origen #PS100085) using standard methods.
HEK293T cells carrying the ATF4 luciferase reporter were plated on 96-well plates (Nunc) at 10,000 cells per well. Cells were treated two days after seeding with 100 nM thapsigargin (Tg) (Sigma-Aldrich #T9033) in the presence of different concentrations of selected compounds ranging from 0.1 nM to […]. Cells without treatment or cells treated with Tg alone were used as controls. Assay plates containing cells were incubated for 3 hours at 37° C.
Luciferase reactions were performed using Luciferase Assay System (Promega #E1501) as specified by the manufacturer. Luminescence was read with an integration time of 1 s and a gain of 110 using a Cytation-5 multi-mode microplate reader (BioTek).

[1] = system: Chinese hamster ovary (CHO) cells; experiment: Protein synthesis assay (puromycin incorporation, Western blot); assay type: cell-based; conditions: Cricetulus griseus; unstressed CHO cells (without Tg), 2 hours, 1 μM test compound; media alone = 100%; read-out: % Protein synthesis relative to untreated (1 μM test compound)
Description: Chinese hamster ovary (CHO) cells were maintained at 37° C. and 5% CO2 in Dulbecco's Modified Eagle's Media (DMEM) supplemented with 10% fetal bovine serum, 2 mM L-glutamine, 100 U/ml penicillin, and 100 μg/ml streptomycin. After reaching 80% of confluence, cells were detached and seeded on 6 well plates in complete media, allowed to recover overnight and treated for 2 hours with 1 μM of the test compound (to assess protein synthesis levels in unstressed condition), or for 2 hours with 300 nM Tg in the presence of 1 μM of the test compound (to assess the recovery of protein synthesis in a stressed condition). Cells with Tg alone were used as controls.
After the 2 hours treatments, media were replaced by adding 10 μg/ml puromycin (Sigma Aldrich #P8833) in complete media for 30 min. Media were removed and cells were lysed with SDS-PAGE lysis buffer. Lysates were transferred to 1.5 ml tubes and sonicated for 3 min and total protein amount were quantified using BCA Protein Assay Kit (Pierce). Equal amount of protein (30 μg) was loaded on SDS-PAGE gels.
A HRP-conjugated secondary antibody (Rockland) was employed to detect immune-reactive bands using enhanced chemiluminescence (ECL Western Blotting Substrate, Pierce). Quantification of protein bands was done by densitometry using ImageJ software.
The percentage levels were normalized to the media alone condition, which correspond to 100% protein synthesis. […]

Compound	IC50 (ATF4) [nM]	activity at 1 µM [1] [%]
O=C(COc1ccc(Cl)c(F)c1)N[C@H]1CC[C@H](C(=O)Nc2nc3cc(Cl)ccc3s2)CC1 [Compound 14, trans-4-(2-(4-chloro-3-fluorophenoxy)acetamido)-N-(5-chlorobenzo[d]thiazol-2-yl)cyclohexane-1-carboxamide]	< 10	105
O=C(COc1ccc(Cl)c(F)c1)NC1CCN(C(=O)Nc2ccc3cc(Cl)ccc3n2)CC1 [Compound 15, 4-(2-(4-chloro-3-fluorophenoxy)acetamido)-N-(6-chloroquinolin-2-yl)piperidine-1-carboxamide]	10 to 100	177
O=C(COc1ccc(Cl)c(F)c1)NN1CCC(C(=O)Nc2ccc3cc(Cl)ccc3n2)CC1 [Compound 16, 1-(2-(4-chloro-3-fluorophenoxy)acetamido)-N-(6-chloroquinolin-2-yl)piperidine-4-carboxamide]	< 10	133
O=C(Nc1ccc2cc(Cl)ccc2n1)[C@H]1CC[C@H](C(=O)Nc2ccc3cc(Cl)ccc3n2)CC1 [Compound 17, trans-N^1,N^4-bis(6-chloroquinolin-2-yl)cyclohexane-1,4-dicarboxamide]	10 to 100	110
O=C(COc1ccc(Cl)cc1)NN1CCC(C(=O)Nc2ccc3cc(Cl)ccc3n2)CC1 [Compound 18, 1-(2-(4-chlorophenoxy)acetamido)-N-(6-chloroquinolin-2-yl)piperidine-4-carboxamide]	< 10	75.6
O=C(NN1CCC(C(=O)Nc2ccc3cc(Cl)ccc3n2)CC1)c1ccc2cc(Cl)ccc2n1 [Compound 19, 6-chloro-N-(4-((6-chloroquinolin-2-yl)carbamoyl)piperidin-1-yl)quinoline-2-carboxamide]	< 10	122
O=C(COc1ccc(Cl)c(F)c1)N[C@H]1CC[C@H](C(=O)NCc2ccc3cc(Cl)ccc3n2)CC1 [Compound 22, trans-4-(2-(4-chloro-3-fluorophenoxy)acetamido)-N-((6-chloroquinolin-2-yl)methyl)cyclohexanecarboxamide]	10 to 100	100
O=C(CO[C@H]1C[C@@H](OC(F)(F)F)C1)N[C@H]1CC[C@H](C(=O)Nc2ccc3cc(Cl)ccc3n2)CC1 [Compound 24, trans-N-(6-chloroquinolin-2-yl)-4-(2-(cis-3-(trifluoromethoxy)cyclobutoxy)acetamido)cyclohexanecarboxamide]	< 10	99.3
O=C(CO[C@H]1C[C@@H](OC(F)(F)F)C1)NN1CCC(C(=O)Nc2ccc3cc(Cl)ccc3n2)CC1 [Compound 25, N-(6-chloroquinolin-2-yl)-1-(2-((1s, 3s)-3-(trifluoromethoxy)cyclobutoxy)acetamido)piperidine-4-carboxamide]	< 10	96.1
O=C(Nc1ccc2cc(Cl)ccc2n1)[C@H]1CC[C@H](C(=O)N[C@H]2C[C@@H](OC(F)(F)F)C2)CC1 [Compound 31, trans-N1-(6-chloroquinolin-2-yl)-N4-(cis-3-(trifluoromethoxy)cyclobutyl)cyclohexane-1,4-dicarboxamide]	10 to 100	88.3
O=C(COc1ccc(C(F)(F)F)cc1)N[C@H]1CC[C@H](C(=O)Nc2ccc3cc(Cl)ccc3n2)CC1 [Compound 35, trans-N-(6-chloroquinolin-2-yl)-4-(2-(4-(trifluoromethyl)phenoxy)acetamido)cyclohexanecarboxamide]	< 10	82.9
O=C(COc1ccc(OC(F)(F)F)cc1)N[C@H]1CC[C@H](C(=O)Nc2ccc3cc(Cl)ccc3n2)CC1 [Compound 36, trans-N-(6-chloroquinolin-2-yl)-4-(2-(4-(trifluoromethoxy)phenoxy)acetamido)cyclohexanecarboxamide]	< 10	160
O=C(COc1ccc(Cl)c(F)c1)N[C@H]1CC[C@H](C(=O)NCc2cc3cc(Cl)ccc3o2)CC1 [Compound 39, trans-4-(2-(4-chloro-3-fluorophenoxy)acetamido)-N-((5-chlorobenzofuran-2-yl)methyl)cyclohexanecarboxamide]	10 to 100	170
O=C(COc1ccc(Cl)c(F)c1)NN1CCC(C(=O)NCc2cc3cc(Cl)ccc3o2)CC1 [Compound 40, 1-(2-(4-chloro-3-fluorophenoxy)acetamido)-N-((5-chlorobenzofuran-2-yl)methyl)piperidine-4-carboxamide]	< 10	121
O=C(N[C@H]1CC[C@H](C(=O)NCc2cc3cc(Cl)ccc3o2)CC1)c1ccc2cc(Cl)ccc2n1 [Compound 43, 6-chloro-N-(trans-4-(((5-chlorobenzofuran-2-yl)methyl)carbamoyl)cyclohexyl)quinoline-2-carboxamide]	< 10	85.2
O=C(NN1CCC(C(=O)NCc2cc3cc(Cl)ccc3o2)CC1)c1ccc2cc(Cl)ccc2n1 [Compound 44, 6-chloro-N-(4-(((5-chlorobenzofuran-2-yl)methyl)carbamoyl)piperidin-1-yl)quinoline-2-carboxamide]	< 10	96.8
O=C(N[C@H]1CC[C@H](C(=O)NCc2cc3cc(Cl)ccc3o2)CC1)c1cc2cc(Cl)ccc2o1 [Compound 47, 5-chloro-N-(trans-4-(((5-chlorobenzofuran-2-yl)methyl)carbamoyl)cyclohexyl)benzofuran-2-carboxamide]	< 10	103
O=C(NN1CCC(C(=O)NCc2cc3cc(Cl)ccc3o2)CC1)c1cc2cc(Cl)ccc2o1 [Compound 48, 1-(5-chlorobenzofuran-2-carboxamido)-N-((5-chlorobenzofuran-2-yl)methyl)piperidine-4-carboxamide]	< 10	109
O=C(N[C@H]1CC[C@H](C(=O)NCc2cc3cc(Cl)ccc3o2)CC1)C1CNc2cc(Cl)ccc2O1 (stereo partly drawn) [Compound 49, 6-chloro-N-(trans-4-(((5-chlorobenzofuran-2-yl)methyl)carbamoyl)cyclohexyl)-3,4-dihydro-2H-benzo[b][1,4]oxazine-2-carboxamide]	10 to 100	122
O=C(NCc1cc2cc(Cl)ccc2o1)C1CCN(NC(=O)C2CNc3cc(Cl)ccc3O2)CC1 (centres unmarked) [Compound 50, 6-chloro-N-(4-(((5-chlorobenzofuran-2-yl)methyl)carbamoyl)piperidin-1-yl)-3,4-dihydro-2H-benzo[b][1,4]oxazine-2-carboxamide]	10 to 100	85.1
O=C(COc1ccc(Cl)c(F)c1)N[C@H]1CC[C@H](C(=O)NCC2CNc3cc(Cl)ccc3O2)CC1 (stereo partly drawn) [Compound 67, trans-N-((6-chloro-3,4-dihydro-2H-benzo[b][1,4]oxazin-2-yl)methyl)-4-(2-(4-chloro-3-fluorophenoxy)acetamido)cyclohexanecarboxamide]	< 10	109
O=C(COc1ccc(Cl)c(F)c1)NN1CCC(C(=O)NCC2CNc3cc(Cl)ccc3O2)CC1 (centres unmarked) [Compound 68, N-((6-chloro-3,4-dihydro-2H-benzo[b][1,4]oxazin-2-yl)methyl)-1-(2-(4-chloro-3-fluorophenoxy)acetamido)piperidine-4-carboxamide]	< 10	98.3
O=C(N[C@H]1CC[C@H](C(=O)NCC2CNc3cc(Cl)ccc3O2)CC1)c1ccc2cc(Cl)ccc2n1 (stereo partly drawn) [Compound 71, trans-6-chloro-N-(4-(((6-chloro-3,4-dihydro-2H-benzo[b][1,4]oxazin-2-yl)methyl)carbamoyl)cyclohexyl)quinoline-2-carboxamide]	< 10	174
O=C(NN1CCC(C(=O)NCC2CNc3cc(Cl)ccc3O2)CC1)c1ccc2cc(Cl)ccc2n1 (centres unmarked) [Compound 72, 6-chloro-N-(4-(((6-chloro-3,4-dihydro-2H-benzo[b][1,4]oxazin-2-yl)methyl)carbamoyl)piperidin-1-yl)quinoline-2-carboxamide]	< 10	92.2
O=C(N[C@H]1CC[C@H](C(=O)NCC2CNc3cc(Cl)ccc3O2)CC1)c1cc2cc(Cl)ccc2o1 (stereo partly drawn) [Compound 75, 5-chloro-N-(trans-4-(((6-chloro-3,4-dihydro-2H-benzo[b][1,4]oxazin-2-yl)methyl)carbamoyl)cyclohexyl)benzofuran-2-carboxamide]	< 10	114

Reference: patent US20230042881A1, “MODULATORS OF INTEGRATED STRESS RESPONSE PATHWAY” (Praxis Biotech LLC, priority 2021, published 2023)
